# Test results taken from US20100144733A1, “Compounds, compositions and methods comprising heteroaromatic derivatives” (Institute for OneWorld Health, priority 2008, published 2010).
# Like-named read-outs stand apart in the source and are kept apart here.
# Molecular target: T1, CFTR (Homo sapiens, UniProt P13569)
# T1 construct: endogenous in cells; host or cells: T84 human colonic cells (ECACC)
# Assay: T84 assay (FLIPR membrane potential dye, forskolin/IBMX-stimulated CFTR channel activity)
# Type: cell-based
# Method in brief: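 Fluorescence from a membrane potential dye in T84 monolayers (HBSS with 10 mM Hepes) is followed each second for 150 s. Cells are exposed to test compound during the 45 min dye loading, then challenged with forskolin (10 μM) and IBMX (100 μM) to open CFTR. Inhibitors suppress the depolarization-driven fluorescence increase.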
# [1] = oxadiazole-containing compounds (a series), average of at least 2 runs unless annotated n = 1, read-out: IC50
# [2] = imidazole and triazole-containing compounds (Tables 13, 14, 14′), read-out: IC50 (μM) (T84 assay)
# [3] = triazine-containing compounds (Table 8 and 8′), read-out: IC50
# T1 sequence (P13569 whole entry): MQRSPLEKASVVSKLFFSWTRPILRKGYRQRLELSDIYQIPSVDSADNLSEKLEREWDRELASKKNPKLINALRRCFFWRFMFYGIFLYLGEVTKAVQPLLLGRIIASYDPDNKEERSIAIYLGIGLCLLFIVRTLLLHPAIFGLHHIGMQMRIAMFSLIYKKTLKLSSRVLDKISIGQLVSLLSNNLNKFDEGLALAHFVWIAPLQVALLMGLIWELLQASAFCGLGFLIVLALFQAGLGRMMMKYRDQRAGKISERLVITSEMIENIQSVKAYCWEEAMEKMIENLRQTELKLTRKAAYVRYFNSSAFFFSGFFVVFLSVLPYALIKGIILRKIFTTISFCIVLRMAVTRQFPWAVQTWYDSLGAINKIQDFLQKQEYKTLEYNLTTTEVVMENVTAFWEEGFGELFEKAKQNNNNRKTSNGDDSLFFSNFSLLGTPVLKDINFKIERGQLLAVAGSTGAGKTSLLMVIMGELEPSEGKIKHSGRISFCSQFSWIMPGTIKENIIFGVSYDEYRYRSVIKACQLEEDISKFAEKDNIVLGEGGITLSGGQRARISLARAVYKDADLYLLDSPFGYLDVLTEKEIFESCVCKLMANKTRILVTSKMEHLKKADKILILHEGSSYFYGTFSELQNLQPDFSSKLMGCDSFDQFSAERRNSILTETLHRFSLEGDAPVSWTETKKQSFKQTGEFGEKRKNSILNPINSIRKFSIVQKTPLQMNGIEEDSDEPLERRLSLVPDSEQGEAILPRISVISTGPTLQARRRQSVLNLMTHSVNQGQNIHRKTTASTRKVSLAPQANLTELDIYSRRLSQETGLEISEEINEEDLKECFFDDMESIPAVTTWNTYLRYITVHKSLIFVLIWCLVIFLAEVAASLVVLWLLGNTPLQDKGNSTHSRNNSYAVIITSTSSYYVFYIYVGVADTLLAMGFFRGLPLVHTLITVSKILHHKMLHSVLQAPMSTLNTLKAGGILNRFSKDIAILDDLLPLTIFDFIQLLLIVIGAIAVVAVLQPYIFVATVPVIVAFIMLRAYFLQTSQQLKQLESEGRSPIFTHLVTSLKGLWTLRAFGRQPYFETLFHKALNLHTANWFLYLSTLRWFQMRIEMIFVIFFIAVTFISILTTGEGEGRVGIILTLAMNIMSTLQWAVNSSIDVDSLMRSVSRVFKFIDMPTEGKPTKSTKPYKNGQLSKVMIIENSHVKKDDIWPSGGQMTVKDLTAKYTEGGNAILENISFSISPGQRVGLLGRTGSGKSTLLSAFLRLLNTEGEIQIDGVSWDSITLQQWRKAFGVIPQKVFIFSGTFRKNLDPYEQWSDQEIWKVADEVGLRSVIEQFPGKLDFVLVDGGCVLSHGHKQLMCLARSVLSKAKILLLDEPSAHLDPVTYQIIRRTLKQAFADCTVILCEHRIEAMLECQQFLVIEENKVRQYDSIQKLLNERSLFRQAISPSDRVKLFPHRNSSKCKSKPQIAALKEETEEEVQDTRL
SMILES,IC50 [1] [µM],further results
"O=C(NCc1ccc(F)c(F)c1)c1noc(-c2cc(Cl)c(O)c(Cl)c2)n1 [80a, 5-(3,5-dichloro-4-hydroxyphenyl)-N-(3,4-difluorobenzyl)-1,2,4-oxadiazole-3-carboxamide]",8.14,
"Cc1ccc(CNC(=O)c2noc(-c3cc(Cl)c(O)c(Cl)c3)n2)cc1 [81a, 5-(3,5-dichloro-4-hydroxyphenyl)-N-(4-methylbenzyl)-1,2,4-oxadiazole-3-carboxamide]",14.8,
"O=C(NCc1ccccc1Cl)c1noc(-c2cc(Cl)c(O)c(Cl)c2)n1 [83a, N-(2-chlorobenzyl)-5-(3,5-dichloro-4-hydroxyphenyl)-1,2,4-oxadiazole-3-carboxamide]",7.28,
"CN(Cc1ccc(Cl)cc1)C(=O)c1noc(-c2cc(Cl)c(O)c(Cl)c2)n1 [84a, N-(4-chlorobenzyl)-5-(3,5-dichloro-4-hydroxyphenyl)-N-methyl-1,2,4-oxadiazole-3-carboxamide]",4.03,
"O=C(c1ncn(-c2cc(Cl)c(O)c(Cl)c2)n1)N(Cc1ccccc1)Cc1cccc(OC(F)(F)F)c1 [84i, N-benzyl-1-(3,5-dichloro-4-hydroxyphenyl)-N-(3-(trifluoromethoxy)benzyl)-1H-1,2,4-triazole-3-carboxamide]",,IC50 [2]: 6.81 µM
"O=C(NCc1cc(Cl)cc(Cl)c1)c1noc(-c2cc(Cl)c(O)c(Cl)c2)n1 [85a, 5-(3,5-dichloro-4-hydroxyphenyl)-N-(3,5-dichlorobenzyl)-1,2,4-oxadiazole-3-carboxamide]",2.33,
"O=C(c1ncn(-c2cc(Cl)c(O)c(Cl)c2)n1)N(Cc1ccccc1)Cc1cccc(C(F)(F)F)c1 [85i, N-benzyl-1-(3,5-dichloro-4-hydroxyphenyl)-N-(3-(trifluoromethyl)benzyl)-1H-1,2,4-triazole-3-carboxamide]",,IC50 [2]: 3.16 µM
"O=C(NCc1cccc(Cl)c1)c1noc(-c2cc(Cl)c(O)c(Cl)c2)n1 [86a, N-(3-chlorobenzyl)-5-(3,5-dichloro-4-hydroxyphenyl)-1,2,4-oxadiazole-3-carboxamide]",2.12,
"CN(Cc1ccc(C(F)(F)F)cc1)C(=O)c1noc(-c2cc(Cl)c(O)c(Cl)c2)n1 [87a, 5-(3,5-dichloro-4-hydroxyphenyl)-N-methyl-N-(4-(trifluoromethyl)benzyl)-1,2,4-oxadiazole-3-carboxamide]",3.42,
"O=C(NCc1ccccc1C(F)(F)F)c1noc(-c2cc(Cl)c(O)c(Cl)c2)n1 [88a, 5-(3,5-dichloro-4-hydroxyphenyl)-N-(2-(trifluoromethyl)benzyl)-1,2,4-oxadiazole-3-carboxamide]",6.2,
"O=C(c1nc(-c2cc(Cl)c(O)c(Cl)c2)no1)N(Cc1cccnc1)Cc1cccc(C(F)(F)F)c1 [89a, 3-(3,5-dichloro-4-hydroxyphenyl)-N-(pyridin-3-ylmethyl)-N-(3-(trifluoromethyl)benzyl)-1,2,4-oxadiazole-5-carboxamide]",2.52,
"Oc1c(Br)cc(-c2cnc(OCc3cccc(OCc4ccccc4)c3)nn2)cc1Br [89e, 4-(3-(3-(benzyloxy)benzyloxy)-1,2,4-triazin-6-yl)-2,6-dibromophenol]",,IC50 [3]: 1.47 µM
"O=C(CN(Cc1cccc(C(F)(F)F)c1)C(=O)c1nc(-c2cc(Cl)c(O)c(Cl)c2)no1)c1ccccc1 [90a, 3-(3,5-dichloro-4-hydroxyphenyl)-N-(2-oxo-2-phenylethyl)-N-(3-(trifluoromethyl)benzyl)-1,2,4-oxadiazole-5-carboxamide]",8.38,
"CN(Cc1cccc(C(F)(F)F)c1)C(=O)c1n[nH]c(-c2cc(Cl)c(O)c(Cl)c2)n1 [90c, 5-(3,5-dichloro-4-hydroxyphenyl)-N-methyl-N-(3-(trifluoromethyl)benzyl)-1H-1,2,4-triazole-3-carboxamide]",,"IC50 (triazole-containing compounds (c series), average of at least 2 runs unless annotated n = 1, read-out: IC50): 24.1 µM"
"CC(C)(C)C(=O)CN(Cc1cccc(C(F)(F)F)c1)C(=O)c1nc(-c2cc(Cl)c(O)c(Cl)c2)no1 [91a, 3-(3,5-dichloro-4-hydroxyphenyl)-N-(3,3-dimethyl-2-oxobutyl)-N-(3-(trifluoromethyl)benzyl)-1,2,4-oxadiazole-5-carboxamide]",2.15,
"CC(C)(C)C(=O)N1CCN(C(=O)c2nc(-c3cc(Br)c(O)c(Br)c3)no2)CC1 [93a, 1-(4-(3-(3,5-dibromo-4-hydroxyphenyl)-1,2,4-oxadiazole-5-carbonyl)piperazin-1-yl)-2,2-dimethylpropan-1-one]",5.8,
"CC#CCN(Cc1cccc(C(F)(F)F)c1)C(=O)c1nc(-c2cc(Cl)c(O)c(Cl)c2)no1 [98a, N-(but-2-ynyl)-3-(3,5-dichloro-4-hydroxyphenyl)-N-(3-(trifluoromethyl)benzyl)-1,2,4-oxadiazole-5-carboxamide]",2.86,
"O=C(c1nc(-c2cc(Cl)c(O)c(Cl)c2)no1)N(Cc1cccc(C(F)(F)F)c1)Cc1cccc(C(F)(F)F)c1 [101a, 3-(3,5-dichloro-4-hydroxyphenyl)-N,N-bis(3-(trifluoromethyl)benzyl)-1,2,4-oxadiazole-5-carboxamide]",6.71,

SMILES,IC50 [1] [µM],further results
"N#Cc1ccc(COc2ncc(-c3cc(Br)c(O)c(Br)c3)nn2)cc1 [101e, 4-((6-(3,5-dibromo-4-hydroxyphenyl)-1,2,4-triazin-3-yloxy)methyl)benzonitrile]",,IC50 [3]: 3.49 µM
"C=CCN(Cc1ccc(C(C)C)cc1)C(=O)c1ncn(-c2cc(Cl)c(O)c(Cl)c2)n1 [101i, N-allyl-1-(3,5-dichloro-4-hydroxyphenyl)-N-(4-isopropylbenzyl)-1H-1,2,4-triazole-3-carboxamide]",,IC50 [2]: 0.76 µM
"O=C(NCc1cccc(F)c1F)c1noc(-c2cc(Cl)c(O)c(Cl)c2)n1 [102a, 5-(3,5-dichloro-4-hydroxyphenyl)-N-(2,3-difluorobenzyl)-1,2,4-oxadiazole-3-carboxamide]",10.1,
"O=C(NCc1c(F)cccc1F)c1noc(-c2cc(Cl)c(O)c(Cl)c2)n1 [103a, 5-(3,5-dichloro-4-hydroxyphenyl)-N-(2,6-difluorobenzyl)-1,2,4-oxadiazole-3-carboxamide]",9.64,
"O=C(Nc1ccc(Oc2ccccc2)cc1)c1nc(-c2cc(Br)c(O)c(Br)c2)no1 [104a, 3-(3,5-dibromo-4-hydroxyphenyl)-N-(4-phenoxyphenyl)-1,2,4-oxadiazole-5-carboxamide]",23,
"CC(C)(C)CCNC(=O)c1nc(-c2cc(Br)c(O)c(Br)c2)no1 [105a, 3-(3,5-dibromo-4-hydroxyphenyl)-N-(3,3-dimethylbutyl)-1,2,4-oxadiazole-5-carboxamide]",23.1,
"CN(Cc1cccc(C(F)(F)F)c1)C(=O)c1noc(-c2cc(Cl)c(OCC(=O)O)c(Cl)c2)n1 [106a, 2-(2,6-dichloro-4-(3-(methyl(3-(trifluoromethyl)benzyl)carbamoyl)-1,2,4-oxadiazol-5-yl)phenoxy)acetic acid]",24.6,
"O=C(O)COc1c(Cl)cc(-c2nc(C(=O)NCc3ccc(Oc4ccccc4)cc3)no2)cc1Cl [107a, 2-(2,6-dichloro-4-(3-(4-phenoxybenzylcarbamoyl)-1,2,4-oxadiazol-5-yl)phenoxy)acetic acid]",19.2,
"CCCN(Cc1cccc(C(F)(F)F)c1)C(=O)c1nc(-c2cc(Cl)c(O)c(Cl)c2)no1 [108a, 3-(3,5-dichloro-4-hydroxyphenyl)-N-propyl-N-(3-(trifluoromethyl)benzyl)-1,2,4-oxadiazole-5-carboxamide]",2.79,
"C#CCN(Cc1cccc(C(F)(F)F)c1)C(=O)c1nc(-c2cc(Cl)c(O)c(Cl)c2)no1 [109a, 3-(3,5-dichloro-4-hydroxyphenyl)-N-(prop-2-ynyl)-N-(3-(trifluoromethyl)benzyl)-1,2,4-oxadiazole-5-carboxamide]",5.31,
"CCOCCN(Cc1cccc(C(F)(F)F)c1)C(=O)c1nc(-c2cc(Cl)c(O)c(Cl)c2)no1 [110a, 3-(3,5-dichloro-4-hydroxyphenyl)-N-(2-ethoxyethyl)-N-(3-(trifluoromethyl)benzyl)-1,2,4-oxadiazole-5-carboxamide]",3.76,
"COCCOCCN(Cc1cccc(C(F)(F)F)c1)C(=O)c1nc(-c2cc(Cl)c(O)c(Cl)c2)no1 [111a, 3-(3,5-dichloro-4-hydroxyphenyl)-N-(2-(2-methoxyethoxy)ethyl)-N-(3-(trifluoromethyl)benzyl)-1,2,4-oxadiazole-5-carboxamide]",6.14,
"COCCOCCOCCOCCN(Cc1ccc(Cl)c(Cl)c1)C(=O)c1ncn(-c2cc(Cl)c(O)c(Cl)c2)n1 [111i, 1-(3,5-dichloro-4-hydroxyphenyl)-N-(3,4-dichlorobenzyl)-N-(2,5,8,11-tetraoxatridecan-13-yl)-1H-1,2,4-triazole-3-carboxamide]",,IC50 [2]: 9.17 µM
"O=C(NCc1cc(F)ccc1F)c1noc(-c2cc(Cl)c(O)c(Cl)c2)n1 [113a, 5-(3,5-dichloro-4-hydroxyphenyl)-N-(2,5-difluorobenzyl)-1,2,4-oxadiazole-3-carboxamide]",15.7,
"COCCOCCOCCN(Cc1cccc(OC(F)(F)F)c1)C(=O)c1ncn(-c2cc(Cl)c(O)c(Cl)c2)n1 [113i, 1-(3,5-dichloro-4-hydroxyphenyl)-N-(2-(2-(2-methoxyethoxy)ethoxy)ethyl)-N-(3-(trifluoromethoxy)benzyl)-1H-1,2,4-triazole-3-carboxamide]",,IC50 [2]: 23.5 µM
"O=C(NCc1ccc(F)cc1F)c1noc(-c2cc(Cl)c(O)c(Cl)c2)n1 [114a, 5-(3,5-dichloro-4-hydroxyphenyl)-N-(2,4-difluorobenzyl)-1,2,4-oxadiazole-3-carboxamide]",7.9,
"O=C(NCc1ccc(F)cc1)c1noc(-c2cc(Cl)c(O)c(Cl)c2)n1 [115a, 5-(3,5-dichloro-4-hydroxyphenyl)-N-(4-fluorobenzyl)-1,2,4-oxadiazole-3-carboxamide]",11.8,
"COCCOCCOCCOCCN(Cc1cccc(OC(F)(F)F)c1)C(=O)c1ncn(-c2cc(Cl)c(O)c(Cl)c2)n1 [115i, 1-(3,5-dichloro-4-hydroxyphenyl)-N-(2,5,8,11-tetraoxatridecan-13-yl)-N-(3-(trifluoromethoxy)benzyl)-1H-1,2,4-triazole-3-carboxamide]",,IC50 [2]: 2.8 µM
